# Test results as given in US20080269170A1, “Novel 2,4-Dianilinopyrimidine Derivatives, the Preparation Thereof, Their Use as Medicaments, Pharmaceutical Compositions and, in Particular, as IKK Inhibitors” (sanofi-aventis, priority 2005, published 2008).
# Counter-ions that a name gives are not always drawn.
row,melting point [°C],SMILES
1,242 to 244,"Cc1cc(Nc2ccnc(Nc3ccc(S(=O)(=O)N(CCN)C4CCNCC4)cc3)n2)ccc1F [Example 48, N-(2-Aminoethyl)-4-[4-(4-fluoro-3-methyl-phenylamino)pyrimidin-2-ylamino]-N-piperidin-4-yl-benzenesulfonamide]"
2,134 to 139,"Cc1cc(Nc2ccnc(Nc3ccc(S(=O)(=O)N(C)C4CCN(Cc5cc[nH]c5)CC4)cc3)n2)ccc1F [Example 111, 4-({4-[(4-Fluoro-3-methylphenyl)amino]-pyrimidin-2-yl}amino)-N-methyl-N-{1-[(1H-pyrrol-3-yl)-methyl]piperidin-4-yl}benzenesulfonamide]"
3,114.5,"Cc1cc(Nc2ccnc(Nc3ccc(S(=O)(=O)N(C)C4CCN(CCS(C)(=O)=O)CC4)cc3)n2)ccc1F [Example 129, 4-({4-[(4-Fluoro-3-methylphenyl)amino]-pyrimidin-2-yl}amino)-N-methyl-N-{1-[2-(methyl-sulfonyl)ethyl]piperidin-4-yl}benzenesulfonamide]"
4,231 to 235,"Cc1cc(Nc2ccnc(Nc3ccc(S(=O)(=O)N(CCN4CCCC4)C4CNC4)cc3)n2)ccc1F (as salt: hydrochloride) [Example 97, N-Azetidin-3-yl-4-({4-[(4-fluoro-3-methyl-phenyl)amino]pyrimidin-2-yl}amino)-N-(2-pyrrolidin-1-ylethyl)benzenesulfonamide hydrochloride]"
5,159 to 160,"Cc1cc(Nc2ccnc(Nc3ccc(S(=O)(=O)N(C)C4CCN(Cc5cccn5C)CC4)cc3)n2)ccc1F [Example 110, 4-({4-[(4-Fluoro-3-methylphenyl)amino]-pyrimidin-2-yl}amino)-N-methyl-N-{1-[(1-methyl-1H-pyrrol-2-yl)methyl]piperidin-4-yl}benzenesulfonamide]"
6,189,Cc1cc(Nc2ccnc(Nc3ccc(S(=O)(=O)N(CC4CCCO4)C4CCC(=O)CC4)cc3)n2)ccc1F (stereo not drawn) [Example 169]
7,224,"Cc1cc(Nc2ccnc(Nc3ccc(S(=O)(=O)N(C)C4CCN(Cc5cn[nH]c5)CC4)cc3)n2)ccc1F [Example 134, 4-({4-[(4-Fluoro-3-methylphenyl)amino]-pyrimidin-2-yl}amino)-N-methyl-N-{1-[(1H-pyrazol-4-yl)methyl]piperidin-4-yl}benzenesulfonamide]"
8,85,CCOP(=O)(CCN1CCC(N(CCN2CCCC2)S(=O)(=O)c2ccc(Nc3nccc(Nc4ccc(F)cc4)n3)cc2)CC1)OCC
9,128,"CNC1CCC(N(CCN2CCCC2)S(=O)(=O)c2ccc(Nc3nccc(Nc4ccc(F)cc4)n3)cc2)CC1 (stereo not drawn) [Example 147, 4-({4-[(4-Fluorophenyl)amino]pyrimidin-2-yl}amino)-N-(4-trans(methylamino)cyclohexyl)-N-(2-pyr-rolidin-1-ylethyl)benzenesulfonamide]"

# Second part, the compound before the results:
row,SMILES,melting point [°C]
1,CCOP(=O)(CCCN1CCC(NS(=O)(=O)c2ccc(Nc3nccc(Nc4ccc(F)cc4)n3)cc2)CC1)OCC,110
2,"Cc1cc(CN2CCC(N(C)S(=O)(=O)c3ccc(Nc4nccc(Nc5ccc(F)c(F)c5)n4)cc3)CC2)no1 [Example 166, 4-({4-[(3,4-Difluorophenyl)amino]pyrimidin-2-yl}amino)-N-methyl-N-{1-[(5-methylisoxazol-3-yl)methyl]piperidin-4-yl}benzenesulfonamide]",204 to 206
3,"O=S(=O)(c1ccc(Nc2nccc(Nc3ccc(F)cc3)n2)cc1)N(CCNCC(F)(F)F)C1CCN(Cc2ccccc2)CC1 [Example 103, N-(1-Benzylpiperidin-4-yl)-4-({4-[(4-fluorophenyl)amino]pyrimidin-2-yl}amino)-N-{2-[(2,2,2-trifluoroethyl)amino]ethyl}benzenesulfonamide]",137 to 138
4,"CN1CCC(N(C)S(=O)(=O)c2ccc(Nc3nccc(Nc4ccc(F)cc4)n3)cc2)C1 (stereo not drawn) [Example 5, 4-[4-(4-Fluorophenylamino)pyrimidin-2-yl-amino]-N-methyl-N-(1-methylpyrrolidin-3-yl)benzene-sulfonamide]",177 to 181
5,CCNCCN(C1CCNCC1)S(=O)(=O)c1ccc(Nc2nccc(Nc3ccc(F)cc3)n2)cc1 (as salt: hydrochloride),250
6,"CN(C1CCN(CCCC(F)(F)F)CC1)S(=O)(=O)c1ccc(Nc2nccc(Nc3ccc(F)cc3)n2)cc1 [Example 40, 4-[4-(4-Fluorophenylamino)pyrimidin-2-yl-amino]-N-methyl-N-[1-(4,4,4-trifluorobutyl)piperidin-4-yl]benzenesulfonamide]",166 to 167
7,"CCNC1CCC(N(C)S(=O)(=O)c2ccc(Nc3nccc(Nc4ccc(F)cc4)n3)cc2)CC1 (stereo not drawn) [Example 142, 4-({4-[(4-Fluorophenyl)amino]pyrimidin-2-yl}amino)-N-methyl-N-[4-cis(ethylamino)cyclohexyl]-benzenesulfonamide]",188
8,"COCCN(C1CCS(=O)(=O)C1)S(=O)(=O)c1ccc(Nc2nccc(Nc3ccc(F)cc3)n2)cc1 (stereo not drawn) [Example 127, 4-[[4-[(4-Fluorophenyl)amino]-2-pyrimidin-yl]amino]-N-(2-methoxyethyl)-N-(tetrahydro-1,1-dioxido-3-thienyl)benzenesulfonamide]",150
9,CCOP(=O)(CCN1CCC(N(CCCN)S(=O)(=O)c2ccc(Nc3nccc(Nc4ccc(F)c(F)c4)n3)cc2)CC1)OCC,94 to 96
10,"CN(C)CCN(C1CCN(C)CC1)S(=O)(=O)c1ccc(Nc2nccc(Nc3ccc(F)cc3)n2)cc1 [Example 18, N-(2-Dimethylaminoethyl)-4-[4-(4-fluoro-phenylamino)pyrimidin-2-ylamino]-N-(1-methylpiperidin-4-yl)benzenesulfonamide]",135 to 137
11,"C=CCN(C1CCN(C)CC1)S(=O)(=O)c1ccc(Nc2nccc(Nc3ccc(F)cc3)n2)cc1 [Example 128, 4-({4-[(4-Fluorophenyl)amino]pyrimidin-2-yl}amino)-N-allyl-N-(1-methylpiperidin-4-yl)benzene-sulfonamide]",167
12,"CNC1CCC(N(C)S(=O)(=O)c2ccc(Nc3nccc(Nc4ccc(F)cc4)n3)cc2)CC1 (stereo not drawn) [Example 122, 4-({4-[(4-Fluorophenyl)amino]pyrimidin-2-yl}amino)-N-methyl-N-[4-trans(methylamino)cyclohexyl]-benzenesulfonamide]",195
13,"CCNC1CCC(N(C)S(=O)(=O)c2ccc(Nc3nccc(Nc4ccc(F)cc4)n3)cc2)CC1 (stereo not drawn) [Example 143, 4-({4-[(4-Fluorophenyl)amino]pyrimidin-2-yl}amino)-N-methyl-N-[4-trans(ethylamino)cyclohexyl]-benzenesulfonamide]",178
14,"CCN(C1CCN(Cc2ccccc2)C1)S(=O)(=O)c1ccc(Nc2nccc(Nc3ccc(F)cc3)n2)cc1 (stereo not drawn) [Example 15, N-(1-Benzylpyrrolidin-3-yl)-4-[4-(4-fluoro-phenylamino)pyrimidin-2-ylamino]-N-ethylbenzene-sulfonamide]",125 to 127
15,"CN1CCC(N(Cc2cccn2C)S(=O)(=O)c2ccc(Nc3nccc(Nc4ccc(F)cc4)n3)cc2)CC1 [Example 161, 4-({4-[(4-Fluorophenyl)amino]pyrimidin-2-yl}amino)-N-(1-methylpiperidin-4-yl)-N-[(1-methyl-1H-pyrrol-2-yl)methyl]benzenesulfonamide]",129
